{"source": "paper PMC10861593", "about": "“Kisspeptin-10 binding to Gpr54 in osteoclasts prevents bone loss by activating Dusp18-mediated dephosphorylation of Src” (Nature Communications, 2024)", "molecules": {"B1": {"name": "DUSP18: full-length WT human DUSP18 (protein, UniProt Q8NEJ0 1-188, looked up)", "chain": "MTAPSCAFPVQFRQPSVSGLSQITKSLYISNGVAANNKLMLSSNQITMVINVSVEVVNTLYEDIQYMQVPVADSPNSRLCDFFDPIADHIHSVEMKQGRTLLHCAAGVSRSAALCLAYLMKYHAMSLLDAHTWTKSCRPIIRPNSGFWEQLIHYEFQLFGKNTVHMVSSPVGMIPDIYEKEVRLMIPL", "modifications": "full-length His tag"}}, "key": {"[1]": {"tested_on": "Dusp18 knockout mice", "test": "bone and osteoclast parameters in Dusp18 knockout mice", "format": "in vivo, mouse", "conditions": "femur", "text": "Data represent means ± SEM. […] Representative results were obtained from at least three independent experiments. Source data are provided as a Source Data file."}, "[2]": {"tested_on": "FSH and LH", "test": "Elisa of serum FSH and LH", "format": "in vivo, mouse", "conditions": "10 nmol/kg twice per week for two months, versus vehicle; n = 6 per group", "text": "Supplementary Fig. 16 a Representative image of Von Kossa staining of sham-operated female C57 mice treated with vehicle (Sham, n=4), ovariectomized mice (OVX, n=3), and OVX mice treatment with 1 nmol/kg Kp-10 (n=6),10 nmol/kg Kp-10 (n=6),1 nmol/kg (DSS)*6-Kp-10 (n=5) or 10 nmol/kg (DSS)*6-Kp-10 (n=6) twice one week by intraperitoneal injection for two months. […] BV/TV, bone volume as a fraction of total bone volume; Tb. Th, trabecular thickness; Tb. Sp, trabecular separation; Tb. N, trabecular number. c Elisa assay showing LH, FSH derived from the serum of sham-operated female C57 mice treated with vehicle (Sham+ vehicle) or 10 nmol/kg (DSS)*6-Kp-10 (Sham+10 nmol/kg Kp-10), ovariectomized mice treated with vehicle (OVX+ vehicle) or 10 nmol/kg (DSS)*6-Kp-10 (OVX+ 10 nmol/kg Kp-10) twice one week by intraperitoneal injection for two months. n=6 per group. Error bars are ± SEM. P-values were determined by two-way ANOVA analysis (b, c) ***P <0.001, ****P <0.0001. “ns” means no significant difference. Representative results were observed from at least three independent experiments. Source data are provided as a Source Data file."}, "[3]": {"tested_on": "OVX mice", "test": "OVX-induced bone loss model (and sham-operated mice)", "format": "in vivo, mouse", "text": "Fig. 7 Kp-10 ameliorated OVX-induced bone loss. a, c Representative micro-CT images of femoral trabecular bone (a) and cortical bone (c). Female C57 mice treated with vehicle (Sham) or 50 nmol/kg (DSS)*6-Kp-10, ovariectomized mice (OVX) treated with vehicle or 50nmol/kg (DSS)*6-Kp-10 twice one week by intraperitoneal injection (n = 6 per group). Scale bar, 500 µm. b, d Parameter analysis of femurs from the mice above. BMD bone mineral density, BV/TV bone volume as a fraction of total bone volume, Tb.Th trabecular thickness, Tb.N trabecular number, Tb.Sp trabecular separation. e Representative TRAP staining images of femurs from Fig. 7a. f Histomorphometry analysis of the femurs from Fig. 7a. Oc.S/BS osteoclast surface per bone surface, N.Oc/B.Pm osteoclast bone surface density, ES/BS eroded surface per bone surface. Data represent means ± SEM. P values were determined by one-way ANOVA analysis (b, d, f). Representative results were obtained from at least three independent experiments. Source data are provided as a Source Data file.\n3D micro-CT analyses were performed as previously described. We scanned the femur using in vitro X-ray microtomography (Skyscan 1272, Bruker micro CT) at a pixel size of 9 µm, and analyzed the results according to the manufacturer’s instructions. Region-of-interest (ROI) was defined from 10 to 110 image slices, where the growth plate slice was defined as 0 mm. The contrast was defined from 68–255; 3D analysis, BMD, and 3D models were analyzed using CTAn software (Bruker micro CT). 3D models were adjusted in CT Vox software (Bruker micro CT).\nBone tissue was removed of excess tissues and fixed with 4% formalin, decalcified with 0.5 M EDTA for 10–14 days, embedded with paraffin, sectioned, and stained using the TRAP staining kit (Sigma-Aldrich, 387A-1KT). The third lumbar spine vertebrae (L3) were fixed with 4% formalin, sectioned, and subjected to Von Kossa staining as described previously[60],[61]. For double calcian labeling assay, 4−5 week-old mice were administrated calcian (30 μg/mL) through intraperitoneal injection for the first time and the second time after 10 days. The third lumbar spine vertebrae (L3) were fixed with 4% formalin, sectioned, and subjected to Goldner’s Masson trichrome staining, or acquisition of fluorescence images. Histomorphometric measurements were made using the OsteoMeasure Analysis System (Osteometrics, Atlanta, GA, USA) according to standard criteria.\nFor animal studies in vivo, mice were randomized for weight. For the OVX-induced bone loss model, 2-month-old female C57BL/6 mice were sham-operated (sham) or ovariectomized (OVX) and randomly divided into indicated groups. Vehicle, Kp-10 or (DSS)*6-Kp-10 was injected into the tail vein twice per week. After two months of treatment, the femurs and the L3 lumbrae were isolated for micro-CT or histomorphometric analysis. 3D micro-CT analyses were performed according to a standard protocol. BMD and bone volume were analyzed by CT-analysis software (CTAn, Bruker micro CT, Kontich, Belgium) and images were reconstituted by CT-volume software (CTvol, skyscan, CTAn, Bruker micro CT, Kontich, Belgium).\nSupplementary Fig. 16 a Representative image of Von Kossa staining of sham-operated female C57 mice treated with vehicle (Sham, n=4), ovariectomized mice (OVX, n=3), and OVX mice treatment with 1 nmol/kg Kp-10 (n=6),10 nmol/kg Kp-10 (n=6),1 nmol/kg (DSS)*6-Kp-10 (n=5) or 10 nmol/kg (DSS)*6-Kp-10 (n=6) twice one week by intraperitoneal injection for two months. […]"}, "[4]": {"tested_on": "GPR54", "set-up": "method as in PMID 22975302", "conditions": "cited from earlier work", "text": "(§1) Bone targeting Kp-10 ([…] D-Tyr–Asn-(D-Trp)-Asn-Ser-Phe-(azaGly)-Leu-Arg (Me)-Phe-NH2) was designed using six repetitive sequences of aspartate, serine, and serine, which is a bone surface-targeting delivery system as previously described."}, "[5]": {"conditions": "cited from earlier work", "text": "as §1"}, "[6]": {"tested_on": "GPR54 CT", "test": "competitive pull-down assay, His-SRC and His-DUSP18 with GST-GPR54 CT", "format": "binding, human", "conditions": "His-SRC 0 or 0.1 μg, His-DUSP18 0, 0.1 or 0.2 μg", "procedure": "Beads were analyzed by phosphatase activity assay (a), mass spectrometry assay (b), IB analysis (c) and quantification of protein levels (d). e, f Protein co-localization was analyzed by IF staining in primary pre-osteoclast with 10 nM Kp-10 treatment for 20 min. […] Scale bar, 50 µm. g, h binding affinity was measured by SPR binding analysis. […] Data represent means ± SEM. P values were determined by one-way ANOVA analysis (a, d, j, l) or two-tailed Student’s t-test (f). Representative results were obtained from at least three independent experiments. Source data are provided as a Source Data file."}, "[7]": {"tested_on": "GPR54 CT", "test": "GST pull-down / Co-IP of GPR54 CT with DUSP18, PTPN6 and PPP1CA", "format": "binding, human", "conditions": "293T WCL, DUSP18-Flag, PPP1CA-Flag or PTPN6-Flag", "procedure": "Supplementary Fig. 3 a, b SPR binding analysis showing the binding affinity of Src and human GPR54^336-356 peptide (a), Src and human GPR54 ^333-344 peptide (b). c, d Anti-Flag IP derived from 293T cells transfected with HA-Src and GPR54-Flag constructs with Kp-10 (10 nM) stimulation (c) and quantification of protein levels (d). e. e IF staining was carried out using pre-osteoclasts differentiated from BMMs in the presence of M-CSF (10 ng/ml) and RANKL (50 ng/ml) for 2 days. Representative images were shown by TIRF microscopy. f, g IB analysis of total samples and GST pull-downs using GST proteins including GST, GST-GPR54 CT incubated separately with WCL of 293T cells transfected with DUSP18-flag, PPP1CA-Flag or PTPN6-Flag (f), and quantification of protein levels (g). Error bars are ± SEM. P-values were determined by two-tailed Student’s t-test (d) or one-way ANOVA analysis (g). *P <0.05, Representative results were observed from at least three independent experiments. Source data are provided as a Source Data file."}, "[8]": {"tested_on": "Src (Y416)", "test": "in vitro phosphatase activity assay with Src", "format": "biochemical, human", "conditions": "purified proteins; 30 min at 30 °C; Western blot", "procedure": "The C terminus of human GPR54 (H329- L398) and mouse Gpr54 (R331- L396) cDNAs were subcloned into a pGEX-4T2 vector. For purification of full-length WT human DUSP18 and DUSP18 (C104S) proteins, DUSP18 was cloned into pMCSG7 vector. For purification of Src (G85-L536) protein, cDNAs of human Src were subcloned into pFastBac HT B vector with an N-terminal 6xHis tag and expressed in Sf9 cells (Expression Systems) using the Bac-to-Bac Baculovirus Expression System (Invitrogen) for 48 h. For purification of the Src (G85-V247)-GPR54 (333–356 with C338S, C340S mutation) recombinant fusion protein, the C-terminus of GPR54 (333–356 with C338S and C340S mutation) was linked to the C terminus of Src SH3-SH2 domain (G85-V247), which was subcloned into the pMCSG7 vector.\nFor the total phosphatase activity assay, the Co-IP experiment was carried out after Kp-10 treatment of RAW264.7 cells for 20 min, followed by lysis and incubation with the Gpr54 antibody. The assay was performed according to the phosphatase assay kit (Sigma-Aldrich,17-313). For the DUSP18 phosphatase activity assay, His-DUSP18 and His-DUSP18 (C104S) were purified from E Coli, and His-Src was purified from Sf9 insect cells. His-DUSP18 and His-DUSP18 (C104S) were incubated with His-Src in 1x phosphatase buffer (20 mM HEPES, 20 mM MgCl2, 0.03% β-mercaptoethanol)[51] for 30 min at 30 °C with gentle shaking. […]"}}, "note": "“Also recorded” adds a separate entry of the source. Where no end group is shown, it is not given here. [ ]: non-standard residue; d: D form. azaGly = NNC(=O)O"}
{"molecule": "DSSDSSDSSDSSDSSDSS[dY]N[dW]NSF[azaGly]LR(Me)F-NH2 [(DSS)*6-Kp-10]", "values": [{"measurement": "rescue of Dusp18 deletion induced osteoclast activity", "setting": "[1]; TRAP staining and osteoclast parameters", "result": "not by (DSS)*6-KP-10"}, {"measurement": "rescue of Dusp18 deletion induced bone mass change", "setting": "[1]; micro-CT and bone parameters, n = 5", "result": "not by (DSS)*6-KP-10"}, {"measurement": "serum FSH and LH, sham and OVX mice", "setting": "[2]", "result": "same level of FSH and LH"}, {"measurement": "bone mass, 50 nmol/kg, sham and OVX mice", "setting": "[3]; 50 nmol/kg twice per week, micro-CT, femur, n = 6 per group", "result": "bone mass increased"}, {"measurement": "osteoclast activation, 50 nmol/kg, sham and OVX mice", "setting": "[3]; 50 nmol/kg twice per week, TRAP staining, Oc.S/BS, N.Oc/B.Pm, ES/BS, n = 6 per group", "result": "suppressed osteoclast activation both in sham-operated and OVX mice"}, {"measurement": "bone protective effect versus Kp-10", "setting": "[3]; OVX mice, 1 or 10 nmol/kg twice per week for two months, Von Kossa staining, trabecular bone parameters", "result": "rescued OVX induced bone loss more effectively than Kp-10; also recorded: showed better bone protective effect; also recorded: showed better effects than Kp-10 on bone protection"}, {"measurement": "bone loss / bone protection in vivo (summary statement)", "setting": "[3]; in vivo, OVX-induced bone loss model", "result": "showed bone protection in the OVX-induced bone loss model by inhibiting osteoclast activity; also recorded: protects against bone loss"}]}
{"molecule": "D-Tyr–Asn-(D-Trp)-Asn-Ser-Phe-(azaGly)-Leu-Arg (Me)-Phe-NH2 [Modified Kp-10]", "values": [{"measurement": "GPR54 agonistic activity", "setting": "[4]", "result": "excellent GPR54 agonistic activity"}, {"measurement": "metabolic stability", "setting": "[5]", "result": "high metabolic stability"}]}
{"molecule": "B1", "values": [{"measurement": "competition with Src for binding to GPR54 CT", "setting": "[6]", "result": "competed with Src for binding to GPR54 CT"}, {"measurement": "interaction with GPR54 among DUSP18, PTPN6 and PPP1CA", "setting": "[7]", "result": "had the strongest interaction with GPR54"}, {"measurement": "dephosphorylation of Src (Y416)", "setting": "[8]", "result": "potently reduced the phosphorylation of Src (Y416)"}]}
